One compound from US20240426845A1, “METHOD FOR DETECTING A LIPIDATED PROTEIN VIA FLUORESCENCE RESONANCE ENERGY TRANSFER (FRET)” (Biogen MA Inc., priority 2021, published 2024) can be followed below.

In assay [1] the test system is CCF-STTG1 astrocytoma cells (ApoE lipoprotein secretion). Kind of assay: TR-FRET ApoE lipidation assay on media from CCF-STTG1 cells. Format: cell-based. The following applies: Homo sapiens, media from CCF-STTG cells, 48 hours incubation, europium-conjugated anti-ApoE antibody and DiD, n=3, read-out: EC50 (TR-FRET signal, ApoE lipidation). The protocol:
TR-FRET analysis was performed on an Envision plate reader (Perkin Elmer). The donor fluorophore (europium cryptate-conjugated antibody) was excited at 320 nm. A 40 μs delay occurred before measuring emission signals at 620 nm (donor fluorescence) and 665 nm wavelengths (DiD acceptor FRET signal) during a 400 μs window. Sample normalized FRET signal was determined by finding the ratio of the 665 nm emission to 620 nm emission.
(§1) To test whether the TR-FRET assay detects lipidated proteins secreted from cells, the TR-FRET assay was tested on concentrated media from cultures of CCF-STTG1 astrocytoma cells grown in the absence and presence of T0901317, a LXR transcription factor agonist that induces ApoE lipoprotein secretion. Samples of concentrated media were mixed with TR-FRET buffer, europium-conjugated anti-ApoE3 antibody and DiD, incubated at 37° C. for 20 hours, and then fluorescence was measured using an Envision plate reader. As a control, samples were analyzed by native-PAGE gels, a conventional method of detecting lipidated proteins.
On the technique in general: TR-FRET usually uses a lanthanide donor and a delayed reading to cut background.

Assay [2] shares this test system. Briefly: native-PAGE gel of ApoE lipidation in conditioned media. Format: cell-based. The conditions noted are these: CCF-STTG1 cell media following culture with compound. The protocol:
as §1

Take `O=S(=O)(c1ccccc1)N(CC(F)(F)F)c1ccc(C(O)(C(F)(F)F)C(F)(F)F)cc1` [T0901317]: in assay [1], the 50% effective concentration (EC50) (as a rule, the concentration giving half of the maximal effect) was 50.2 nM. Also, the “lipidated ApoE in cell media by native-PAGE” value in assay [2] is listed as “dose-dependent accumulation of lipidated ApoE”.
